Where a name gives a salt, the structure may show the parent alone.
What was measured:
[1] = target: T1, human calcium receptor (Homo sapiens, UniProt P41180); test: Calcium Receptor Inhibitor Assay; type: cell-based; details: HEK 293 4.0–7 cells stably expressing the human calcium receptor; fluo-3; read-out: IC50 for blocking increases of intracellular Ca2+ elicited by extracellular Ca2+
T1 construct: expressed in transfected cells
T1 sequence (P41180 20-1078): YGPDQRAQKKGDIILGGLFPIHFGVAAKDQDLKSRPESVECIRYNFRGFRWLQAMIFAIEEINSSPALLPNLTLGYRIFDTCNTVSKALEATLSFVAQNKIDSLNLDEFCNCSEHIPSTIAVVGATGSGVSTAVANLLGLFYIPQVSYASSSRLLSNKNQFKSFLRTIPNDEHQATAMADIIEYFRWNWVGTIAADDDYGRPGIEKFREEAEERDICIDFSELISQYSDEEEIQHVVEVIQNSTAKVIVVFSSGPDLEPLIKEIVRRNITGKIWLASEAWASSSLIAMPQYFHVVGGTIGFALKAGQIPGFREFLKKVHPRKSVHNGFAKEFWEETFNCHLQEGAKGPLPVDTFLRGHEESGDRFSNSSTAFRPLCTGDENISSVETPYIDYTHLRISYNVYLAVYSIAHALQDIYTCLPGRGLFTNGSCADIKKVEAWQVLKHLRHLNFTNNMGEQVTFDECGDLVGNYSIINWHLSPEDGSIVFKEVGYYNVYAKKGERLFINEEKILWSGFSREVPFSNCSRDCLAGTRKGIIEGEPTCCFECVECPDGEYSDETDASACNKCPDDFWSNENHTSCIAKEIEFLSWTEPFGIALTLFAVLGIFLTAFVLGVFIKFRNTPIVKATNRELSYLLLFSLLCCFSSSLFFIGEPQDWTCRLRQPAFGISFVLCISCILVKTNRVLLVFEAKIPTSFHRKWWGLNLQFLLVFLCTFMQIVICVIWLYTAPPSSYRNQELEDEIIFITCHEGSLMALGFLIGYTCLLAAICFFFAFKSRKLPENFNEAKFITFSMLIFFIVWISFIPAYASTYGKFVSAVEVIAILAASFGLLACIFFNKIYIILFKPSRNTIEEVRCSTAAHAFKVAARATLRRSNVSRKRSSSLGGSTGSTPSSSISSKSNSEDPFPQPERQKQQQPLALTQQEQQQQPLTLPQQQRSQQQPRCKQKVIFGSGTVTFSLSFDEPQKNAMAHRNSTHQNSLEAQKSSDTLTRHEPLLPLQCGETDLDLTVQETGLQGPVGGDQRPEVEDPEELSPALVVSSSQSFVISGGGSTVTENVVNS
In short: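 Intracellular Ca^2+ measured with fluo-3 at 37° C in stirred cell suspension. Buffer held 1 mM CaCl2 and 1 mg/mL D-glucose. Compound or vehicle added 90 seconds before extracellular Ca^2+ was raised from 1 to 2 mM, and calcilytic activity scored as concentration-dependent block of the intracellular Ca^2+ rise.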

[2] = test system: Parathyroid cells; details: read-out: EC50 for mobilization of intracellular calcium; cited from earlier work

CCCc1ccccc1OCC(O)CNC(C)(C)Cc1ccc(OC)cc1 (stereo not drawn) [Compound 148, N-[2-hydroxy-3-(2-n-propylphenoxy)propyl]-1,1-dimethyl-2-(4-methoxyphenyl)ethylamine Hydrochloride]
IC50 [1]: < 1 µM

CCCc1ccc(OCC(O)CNC(C)(C)Cc2ccc(OC)cc2)cc1 (stereo not drawn) [Compound 149, N-[2-hydroxy-3-(4-n-propylphenoxy)propyl]-1,1-dimethyl-2-(4-methoxyphenyl)ethylamine Hydrochloride]
IC50 [1]: < 1 µM

CCc1cccc(OCC(O)CNC(C)(C)Cc2ccc(OC)cc2)c1 (stereo not drawn) [Compound 150, N-[2-Hydroxy-3-(3-ethylphenoxy)propyl)-1,1-dimethyl-2-(4-methoxyphenyl)ethylamine Hydrochloride]
IC50 [1]: < 1 µM

CCc1ccccc1OCC(O)CNC(C)(C)Cc1ccc(OC)cc1 (stereo not drawn) [Compound 151, N-[2-hydroxy-3-(2-ethylphenoxy)propyl]-1,1-dimethyl-2-(4-methoxyphenyl)ethylamine Hydrochloride]
IC50 [1]: < 1 µM

COc1ccc(CC(C)(C)NCC(O)COc2ccc(OC(F)(F)F)cc2)cc1 (stereo not drawn) [Compound 152, N-[2-hydroxy-3-(4-trifluoromethoxyphenoxy)propyl)-1,1-dimethyl-2-(4-methoxyphenyl)ethylamine Hydrochloride]
IC50 [1]: < 10 µM

COc1ccc(CC(C)(C)NCC(O)COc2ccccc2C(C)C)cc1 (stereo not drawn) [Compound 153, N-[2-hydroxy-3-(2-iso-propylphenoxy)propyl]-1,1-dimethyl-2-(4-methoxyphenyl)ethylamine Hydrochloride]
IC50 [1]: < 1 µM

COc1ccc(CC(C)(C)NCC(O)COc2cccc(OC(F)(F)F)c2)cc1 (stereo not drawn) [Compound 154, N-[2-hydroxy-3-(3-trifluoromethoxyphenoxy)propyl]-1,1-dimethyl-2-(4-methoxyphenyl)ethylamine Hydrochloride]
IC50 [1]: < 1 µM

COc1ccc(CC(C)(C)NCC(O)COc2c(Cl)cccc2Cl)cc1 (stereo not drawn) [Compound 155, N-[2-hydroxy-3-(2,6-dichlorophenoxy)propyl]-1,1-dimethyl-2-(4-methoxyphenyl)ethylamine Hydrochloride]
IC50 [1]: < 10 µM

COc1ccc(CC(C)(C)NCC(O)COc2cc(C(F)(F)F)cc(C(F)(F)F)c2)cc1 (stereo not drawn) [Compound 156, N-[2-hydroxy-3-(3,5-bistrifluoromethylphenoxy)propyl]-1,1-dimethyl-2-(4-methoxyphenyl)ethylamine Hydrochloride]
IC50 [1]: < 1 µM

COc1ccc(CC(C)(C)NCC(O)COc2cc(Cl)cc(OC)c2)cc1 (stereo not drawn) [Compound 157, N-[2-hydroxy-3-(3-chloro-5-methoxyphenoxy)propyl]-1,1-dimethyl-2-(4-methoxyphenyl)ethylamine Hydrochloride]
IC50 [1]: < 1 µM

COc1ccc(CC(C)(C)NCC(O)COc2ccccc2[N+](=O)[O-])cc1 (stereo not drawn) [Compound 159, N-[2-hydroxy-3-(2-nitrophenoxy)propyl]-1,1-dimethyl-2-(4-methoxyphenyl)ethylamine Hydrochloride]
IC50 [1]: < 1 µM

COc1ccc(CC(C)(C)NCC(O)COc2cccc(C#N)c2)cc1 (stereo not drawn) [Compound 160, N-[2-hydroxy-3-(3-cyanophenoxy)propyl]-1,1-dimethyl-2-(4-methoxyphenyl)ethylamine Hydrochloride]
IC50 [1]: < 1 µM

COc1ccc(CC(C)(C)NCC(O)COc2ccc(C#N)cc2)cc1 (stereo not drawn) [Compound 161, N-(2-hydroxy-3-(4-cyanophenoxy)propyl]-1,1-dimethyl-2-(4-methoxyphenyl)ethylamine Hydrochloride]
IC50 [1]: < 10 µM

CCCN(CCC)S(=O)(=O)c1ccc(OC[C@H](O)CNC(C)(C)Cc2ccc(OC)cc2)c(Cl)c1Cl [Compound 165, N-[2(R)-Hydroxy-3-[(2,3-dichloro-4-dipropylsulfamoyl)phenoxyl-1-propyl]-N-[1,1-dimethyl-2-(4-methoxyphenyl)ethyl]amine hydrochloride salt]
IC50 [1]: < 1 µM

CC(C)(Cc1ccc(Cl)c(Cl)c1)NC[C@@H](O)COc1c(C#N)sc2ccccc12 [Compound 166]
IC50 [1]: < 1 µM

COc1ccc(CC(C)(C)NC[C@@H](O)COc2ccc3c(c2)[nH]c2ccccc23)cc1 [Compound 167]
IC50 [1]: < 1 µM

[H]/N=C(/N)N[C@H]1[C@H](O)[C@@H](O)[C@H](O[C@@H]2O[C@@H](C)[C@](O)(C=O)[C@H]2O[C@@H]2O[C@@H](CO)[C@H](O)[C@@H](O)[C@@H]2NC)[C@@H](N/C(N)=N\[H])[C@@H]1O [streptomycin]
EC50 [2]: 600 µM

gentamicin
EC50 [2]: 150 µM

Reference: US7202261B2, “Calcilytic compounds” (NPS Pharmaceuticals, Inc., priority 1996, dated 2007)
